From paper PMC10072198, “A covalent inhibitor targeting the papain-like protease from SARS-CoV-2 inhibits viral replication” (RSC Advances, 2023)
“Also recorded” adds a separate entry of the source.

Assays:
PLpro from SARS-CoV-2 = PLpro from SARS-CoV-2 (Severe acute respiratory syndrome coronavirus 2, UniProt P0DTD1); assay: Fluorescence based PLpro activity assay (R-L-R-G-G-AMC substrate); assay type: biochemical; conditions: read-out: IC50 (PLpro inhibition)
[1] = Determination of GSH t1/2 values; conditions: buffer, pH 7.4
in vitro = conditions: human
SARS-CoV PLpro = conditions: cited from earlier work
SARS-CoV2 = conditions: mouse, in vivo, po; cited from earlier work
SARS-CoV-2 Mpro(3CL) = SARS-CoV-2 Mpro(3CL) (Severe acute respiratory syndrome coronavirus 2, UniProt P0DTD1); assay: Fluorescence based Mpro(3CL) activity assay; assay type: biochemical
Experimental: Fluorescence based Mpro(3CL) activity assays
The ability of compounds 1, 19 and 20 to inhibit Mpro was determined using SensoLyte® 520 SARS-CoV-2 3CL Protease Activity Assay Kit (Anaspec), following the manufacturer’s instructions. Briefly, 40 µL diluted Mpro enzyme solution was added to a flat-bottom 96-well plate.
10 µL of varying concentrations of test compounds or GC 376 solution (an Mpro inhibitor) was (1 picture or pasted object on this page, not shown here) […]
(§1) subsequently added to the enzyme solution. The mixed solutions were incubated at room temperature for 20 min. 50 µL of Mpro protease substrate solution was added to each well, followed by 30 min incubation at 37 °C. The Mpro activity was detected by measuring the fluorescence emission intensity λ excitation=490 nm; λ emission=520nm.
(§2) Compound concentration µM
(§3) Fluorescence based PLpro activity assay in the presence of […] (DTT) and […]
(§4) PLpro inhibition assays were performed in the presence of 5 mM DTT and GSH to determine if […]
(§5) PLpro protease activity was measured with peptide substrate x-x-G-G-AMC (Bachem) in the presence or absence of 5 mM DTT and GSH.
(§6) PLpro was added into a black, flat-bottom 96-well plate at a final concentration of 50 nM with reaction buffer [150 mM NaCl, 20 mM HEPES, 0.1mg/mL BSA, pH 7.5] with or without 5 mM DTT […]
(§7) 0-80 µM for 20 min at room temperature. The enzyme activity assay was initiated by mixing the x-x-G-G-AMC probe at a final 50 µM and incubating for another 20 min at room temperature. The reaction was ended by adding 1 µL of aqueous citric acid. The PLpro activity was detected by measuring the fluorescence emission intensity λ excitation=360 nm; λ emission=460nm.

[2] = tested on: SARS-CoV-2 (US/WA1/2020 isolate); assay: SARS-CoV-2 infection of cells (dsRNA staining, RT-qPCR of viral RNA); assay type: cell-based; conditions: for inhibition of SARS-CoV-2 replication in cells (in words): Calu-3 and/or Vero E6 cells
PLpro [3] = target: T1, PLpro (Severe acute respiratory syndrome coronavirus 2, UniProt P0DTD1); assay: PLpro activity assay in the presence of DTT and GSH; assay type: biochemical, SARS-CoV-2; conditions: 5 mM glutathione or 5 mM DTT
Experimental: as §1, §2, §3, §4, §5, §6, §7

PLpro [4] = target: T1, PLpro; assay: PLpro irreversibility test (pre-incubation then dilution); assay type: biochemical, SARS-CoV-2
Excerpt: All error bars represent the standard error of the mean for n = 3 replicates.

| SMILES | IC50 (PLpro from SARS-CoV-2) [µM] | CC50 (in vitro) [µM] | inhibition of Mpro (in words) (SARS-CoV-2 Mpro(3CL)) | inhibition of SARS-CoV-2 replication in cells (in words) [2] | further results |
| --- | --- | --- | --- | --- | --- |
| O=C(CCl)Nc1ncc([N+](=O)[O-])s1 [Compound 2] | 13 | – | – | – | – |
| C=CS(=O)(=O)c1nc2ccccc2s1 [Compound 6] | 1 | – | – | – | – |
| O=C(NCCc1ccc(F)cc1)n1ccnc1 [Compound 4] | 2.5 | > 500 | – | – | half-life at 0.05 mM [1]: 13.4 min |
| Cc1ccc(N)cc1C(=O)N[C@H](C)c1cccc2ccccc12 [GRL-0617] | – | – | – | – | IC50 (SARS-CoV PLpro): […]; antiviral activity against SARS-CoV2 in mice (SARS-CoV2): moderate antiviral activity |
| O=C(CCl)Nc1cc2c(cc1Br)CCC(=O)N2 [Compound 20] | 6 | – | no interaction | no inhibitory activity against SARS-CoV-2; also recorded: did not inhibit viral replication | – |
| Cn1ncc(C(=O)CCl)n1 [Compound 3] | 0.3 | 62.5 | – | not effective in cells | – |
| O=S(=O)(F)c1cncc(Cl)n1 [Compound 5] | 1.7 | > 500 | – | – | – |
| O=C1COc2cc([N+](=O)[O-])c(NC(=O)CCl)cc2N1 [Compound 19] | 5 | – | no interaction | no inhibitory activity against SARS-CoV-2; also recorded: did not inhibit viral replication | – |
| O=C(CCl)Nc1ccc2c(c1)NC(=O)CO2 [Compound 1] | 18 | – | did not inhibit; also recorded: no interaction | blocked SARS-CoV-2 replication in both cell lines; also recorded: inhibited viral replication in both cell lines | IC50 ([2]; Severe acute respiratory syndrome coronavirus 2, Calu-3 and Vero E6 cells, 72 hours, read-out: IC50 for inhibiting viral replication): < 20 µM; PLpro inhibition in the presence of thiols (in words) (PLpro [3]): able to inhibit PLpro; PLpro inhibition without pre-incubation (PLpro [4]; 500 nM, without pre-incubation at 50 μM): no inhibition; PLpro inhibition after pre-incubation and dilution (PLpro [4]; pre-incubated at 50 μM for 1 hour, then diluted to 500 nM): complete inhibition |
